Assay results: PubChem BioAssay (NCI)
“And” between values parts separate entries of the source, which are not always exact repeats. Identical values can stand only once.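 Assay format: 96-well plates, 48-hour exposure. Here, GI50 denotes the concentration required for 50% inhibition of growth. The concentration for full growth arrest is given as TGI.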

Experiments:
Assay in all cases: NCI tumour cell line growth inhibition, 48 h
[1] = test system: UACC-62 melanoma
[2] = test system: SN12C renal
[3] = test system: SF-539 CNS
[4] = test system: NCI-H23 lung
[5] = test system: NCI-H522 lung
[6] = test system: SF-295 CNS
[7] = test system: SK-MEL-2 melanoma
[8] = test system: HOP-62 NSCLC
[9] = test system: MCF7 breast
[10] = test system: BT-549 breast

| Compound | TGI [1] | TGI [2] | TGI [3] | TGI [4] | TGI [5] | TGI [6] | TGI [7] | TGI [8] | GI50 [1] | GI50 [2] | GI50 [3] | GI50 [4] | GI50 [5] | GI50 [6] | GI50 [7] | GI50 [8] | GI50 [9] | TGI [9] | GI50 [10] | TGI [10] |
| --- | --- | --- | --- | --- | --- | --- | --- | --- | --- | --- | --- | --- | --- | --- | --- | --- | --- | --- | --- | --- |
| CN1C(=O)C(=O)N2c3ccc(Cl)cc3C3(c4ccccc4)N=CC12O3 (centres undefined) | 15.3 µM | 13.7 µM | 14.6 µM | 15.5 µM | 9.14 µM | 23.2 µM | 30.5 µM | 30.7 µM |  |  |  |  |  |  |  |  |  |  |  |  |
| [O-][Cl+3]([O-])([O-])[O-].[O]=[Ru]=[O].c1ccc(-c2ccccn2)nc1.c1ccc(-c2ccccn2)nc1 | > 100 µM | > 100 µM | > 100 µM | > 100 µM | > 100 µM | > 100 µM | > 100 µM | > 100 µM | > 100 µM | 50.9 µM | > 100 µM | > 100 µM | > 100 µM | 60.2 µM | > 100 µM | > 100 µM |  |  |  |  |
| CCCCCCCCCCCCNC(=S)OC | 30.7 µM | 27.3 µM | 30.9 µM | 34 µM | 26 µM | 36 µM | 31.1 µM | 31.9 µM |  |  |  |  |  |  |  |  |  |  |  |  |
| O=c1[nH]c(-c2ccccc2)nc2cc(Cl)ccc12 | > 100 µM |  | > 100 µM | > 100 µM |  | > 100 µM | > 100 µM | > 100 µM |  |  |  |  |  |  |  |  |  |  |  |  |
| Cc1[cH-]c(=O)n(-c2ccccc2)n1.[Au+].[Au].c1ccc([PH+](c2ccccc2)c2ccccc2)cc1.c1ccc([PH+](c2ccccc2)c2ccccc2)cc1 | > 100 µM | > 100 µM | 33.4 µM | 46.1 µM | 51.5 µM | 35.2 µM | 23.5 µM | 54 µM | 3.55 µM and 22.2 µM | 37.5 µM | 2.38 µM and 10.4 µM | 9.75 µM | 3.46 µM and 12.4 µM | 15.1 µM | 4.64 µM and 8.64 µM | 23.7 µM |  |  |  |  |
| CCOC(=O)C1=C(C)N(NC(=O)Nc2ccccc2)C2(N)N(NC(=O)Nc3ccccc3)C(C)=C(C(=O)OCC)C12C(=O)OCC (centres undefined) | > 100 µM | 3.01 µM | 53.4 µM | > 100 µM | > 100 µM | > 100 µM | > 100 µM | 84.7 µM |  |  |  |  |  |  |  |  |  |  |  |  |
| O=C(Nc1nc(=S)[nH][nH]1)C(=O)C(C(=O)c1ccc2ccccc2c1)C1OC(=O)c2ccccc21 (centres undefined) | 30.2 µM | 47.2 µM | 25.2 µM | 79.9 µM | 65.3 µM |  | 53.2 µM | 45.4 µM |  |  |  |  |  |  |  |  |  |  |  |  |
| COc1ccc(CN2C(=O)C(Cl)=C(Nc3cccc(C(F)(F)F)c3)C2=O)cc1 | 19.1 µM | 30.8 µM | 12 µM | 42.4 µM |  | 65.3 µM | 27.3 µM | > 100 µM | 5.33 µM | 12.4 µM | 1.77 µM | 8.08 µM |  | 3.19 µM | 12.3 µM | 18.2 µM | 2.7 µM | 17.2 µM | 1.58 µM | 14.8 µM |
| CC1(C)CC(c2c[nH]c3ccccc23)=CC2=Nc3ccccc3C21O (centres undefined) | > 100 µM | > 100 µM | > 100 µM | > 100 µM | > 100 µM | > 100 µM | > 100 µM | > 100 µM |  |  |  |  |  |  |  |  |  |  |  |  |
| S=P1(Oc2ccccc2)NNP2(=NP(N3CC3)(N3CC3)=NP(N3CC3)(N3CC3)=N2)NN1 (centres undefined) | > 100 µM | > 100 µM | > 100 µM | > 100 µM | > 100 µM |  | > 100 µM | > 100 µM |  |  |  |  |  |  |  |  |  |  |  |  |
| Cc1cc(Nc2ccc(C)c(Cl)c2)n2nc(C(F)(F)F)nc2n1 | 50.1 µM | 52.9 µM | 39 µM | > 100 µM |  | 74 µM | 55.4 µM | 98.9 µM | 19.6 µM | 18.8 µM | 19.1 µM | 29.4 µM |  | 21.2 µM | 22.9 µM | 30.8 µM | 22.7 µM | > 100 µM | 22.9 µM | 57.4 µM |
| C#Cc1cccc(Nc2nc3cc([N+](=O)[O-])ccc3nc2Nc2ccc(O)cc2)c1 | 2.99 µM |  | 3.29 µM |  |  |  | 4.36 µM | 3.35 µM | 1.62 µM |  | 1.75 µM |  |  |  | 2.07 µM | 1.67 µM | 2.2 µM | 6.11 µM | 1.71 µM | 3.7 µM |
| O=C1C(C(Nc2ccccc2)c2ccccc2)=C([O-])c2ccccc21.O=C1C(C(Nc2ccccc2)c2ccccc2)=C([O-])c2ccccc21.[Cu+2] (centres undefined) | > 100 µM | > 100 µM | > 100 µM | > 100 µM | 73.6 µM | > 100 µM |  | > 100 µM | 50.6 µM | 41.5 µM | 30.6 µM | 24.9 µM | 23.7 µM | 48.2 µM |  | > 100 µM |  |  |  |  |
| CCCCCCCCCCSC(=N)N (tested in a mixture with another compound) | 3.96 µM | 21.6 µM | 23.8 µM | 25.9 µM | 4.68 µM | 14.3 µM |  | 27.3 µM | 1.95 µM | 6.28 µM | 10.9 µM | 11.1 µM | 1.91 µM | 3.79 µM |  | 11.8 µM | 2.75 µM | 10.4 µM | 6.65 µM | 25.9 µM |
| COc1c(CC(C)=O)ccc2c1C(=O)c1ccc(C=O)c(OC(C)=O)c1C2=O | 18.5 µM | 27.6 µM | 20.8 µM |  | 8.39 µM | 53.3 µM | 30.3 µM |  |  |  |  |  |  |  |  |  |  |  |  |  |
| Clc1ccc2cccc3c2c1C1OC3c2ccccc21 (centres undefined) | > 100 µM | > 100 µM | > 100 µM | > 100 µM | > 100 µM | > 100 µM | > 100 µM | > 100 µM |  |  |  |  |  |  |  |  |  |  |  |  |
| O=C(/C=C/c1c(O)ccc2ccccc12)c1ccc([N+](=O)[O-])cc1 | 33.3 µM | 39.7 µM | > 90.8 µM | 60.3 µM | 31.2 µM | > 100 µM | > 100 µM | > 100 µM |  |  |  |  |  |  |  |  |  |  |  |  |
| NCCNCCNCCN | > 100 µM | > 100 µM | > 100 µM | > 100 µM |  | > 100 µM | > 100 µM | > 100 µM | > 100 µM | > 100 µM | > 100 µM | > 100 µM |  | > 100 µM | > 100 µM | > 100 µM | > 100 µM | > 100 µM | > 100 µM | > 100 µM |
